Experiments:
vitamin D receptor (VDR) [1] = target: T1, vitamin D receptor (VDR) (Homo sapiens, UniProt P11473); assay: fluorescence polarization competition with Fluormone VDR Red tracer (PolarScreen); format: binding
T1 construct: full-length
T1 sequence (P11473 1-427): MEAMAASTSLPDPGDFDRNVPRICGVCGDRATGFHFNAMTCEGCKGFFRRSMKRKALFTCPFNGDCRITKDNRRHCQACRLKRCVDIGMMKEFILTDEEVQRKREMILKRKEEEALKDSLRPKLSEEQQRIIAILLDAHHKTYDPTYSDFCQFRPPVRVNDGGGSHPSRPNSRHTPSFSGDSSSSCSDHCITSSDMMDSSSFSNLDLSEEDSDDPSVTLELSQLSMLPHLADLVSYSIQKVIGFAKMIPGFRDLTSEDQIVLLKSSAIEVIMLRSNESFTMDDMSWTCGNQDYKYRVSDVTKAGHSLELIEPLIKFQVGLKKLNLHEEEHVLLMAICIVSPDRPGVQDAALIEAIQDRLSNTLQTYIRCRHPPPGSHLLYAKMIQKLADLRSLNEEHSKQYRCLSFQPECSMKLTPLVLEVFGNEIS

vitamin D receptor (VDR) [2] = target: T1, vitamin D receptor (VDR); assay: fluorescence polarization competition with Fluormone VDR Red tracer (PolarScreen); binding only evident above […]

## C=C1CC[C@H](O)C/C1=C/C=C1\CCC[C@]2(C)[C@@H]([C@H](C)CCCC(C)(C)O)CC[C@@H]12 [25(OH)D3]
Vitamin D receptor (VDR) [1]
  IC50: 56.2 nM

## C=C1/C(=C\C=C2/CCC[C@]3(C)[C@@H]([C@H](C)CCC(=NOC)C(C)(C)C)CC[C@@H]23)C[C@@H](O)C[C@@H]1O [VD1-6]
Vitamin D receptor (VDR) [2]
  IC50: 438 nM
